In publication PMC5431432, “Low-basicity 5-HT7 Receptor Agonists Synthesized Using the van Leusen Multicomponent Protocol” (Scientific Reports, 2017):
Like-named read-outs stand apart in the source and are kept apart here.

Tests used:
human serotonin 5-HT1AR = biological target: T1, human serotonin 5-HT1AR (Homo sapiens, UniProt P08908); assay: Radioligand binding, [3H]-8-OH-DPAT displacement
T1 sequence (P08908 1-422): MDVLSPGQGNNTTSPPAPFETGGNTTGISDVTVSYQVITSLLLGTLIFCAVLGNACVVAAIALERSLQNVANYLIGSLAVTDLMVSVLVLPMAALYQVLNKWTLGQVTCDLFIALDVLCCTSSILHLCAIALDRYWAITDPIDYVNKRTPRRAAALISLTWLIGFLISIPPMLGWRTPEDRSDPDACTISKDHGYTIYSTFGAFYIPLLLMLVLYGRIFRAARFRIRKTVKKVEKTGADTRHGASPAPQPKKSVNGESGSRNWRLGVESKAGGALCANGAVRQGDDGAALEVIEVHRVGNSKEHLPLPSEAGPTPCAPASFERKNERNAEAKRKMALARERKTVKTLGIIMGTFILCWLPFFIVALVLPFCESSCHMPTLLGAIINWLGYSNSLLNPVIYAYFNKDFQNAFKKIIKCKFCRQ

[1] = biological target: T2, human serotonin 5-HT2A receptor (Homo sapiens, UniProt P28223); assay: Radioligand binding, [3H]-ketanserin displacement
T2 construct: host or cells: CHO-K1
T2 sequence (P28223 whole entry): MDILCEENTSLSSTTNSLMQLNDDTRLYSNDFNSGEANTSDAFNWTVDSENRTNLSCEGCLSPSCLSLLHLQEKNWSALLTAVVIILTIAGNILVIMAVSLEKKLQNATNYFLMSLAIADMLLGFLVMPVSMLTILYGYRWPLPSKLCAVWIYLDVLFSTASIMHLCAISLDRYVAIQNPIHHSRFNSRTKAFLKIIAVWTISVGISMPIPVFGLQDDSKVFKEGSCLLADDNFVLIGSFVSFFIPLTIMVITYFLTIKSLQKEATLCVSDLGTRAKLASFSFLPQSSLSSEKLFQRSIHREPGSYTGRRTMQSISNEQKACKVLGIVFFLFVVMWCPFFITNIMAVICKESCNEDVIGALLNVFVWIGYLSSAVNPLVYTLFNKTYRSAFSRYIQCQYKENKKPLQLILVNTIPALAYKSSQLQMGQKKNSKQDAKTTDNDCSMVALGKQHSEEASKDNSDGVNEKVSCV

human serotonin 5-HT6R = human serotonin 5-HT6R (Homo sapiens, UniProt P50406); assay: Radioligand binding, [3H]-LSD displacement
Sequence of human serotonin 5-HT6R (P50406 whole entry): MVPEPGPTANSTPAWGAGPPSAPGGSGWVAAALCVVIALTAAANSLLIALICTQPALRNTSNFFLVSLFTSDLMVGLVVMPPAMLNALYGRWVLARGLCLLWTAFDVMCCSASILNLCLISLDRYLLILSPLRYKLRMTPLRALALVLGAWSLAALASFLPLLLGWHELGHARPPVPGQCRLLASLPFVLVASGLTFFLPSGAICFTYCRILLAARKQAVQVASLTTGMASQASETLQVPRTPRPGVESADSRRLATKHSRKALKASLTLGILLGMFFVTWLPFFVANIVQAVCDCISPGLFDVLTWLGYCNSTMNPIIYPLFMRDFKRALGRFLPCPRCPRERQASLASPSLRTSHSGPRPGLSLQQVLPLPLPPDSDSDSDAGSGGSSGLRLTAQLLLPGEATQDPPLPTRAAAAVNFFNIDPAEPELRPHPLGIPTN

human serotonin 5-HT7bR = human serotonin 5-HT7bR (Homo sapiens, UniProt P34969); assay: Radioligand binding, [3H]-5-CT displacement
Sequence of human serotonin 5-HT7bR (P34969 1-432 limits assumed): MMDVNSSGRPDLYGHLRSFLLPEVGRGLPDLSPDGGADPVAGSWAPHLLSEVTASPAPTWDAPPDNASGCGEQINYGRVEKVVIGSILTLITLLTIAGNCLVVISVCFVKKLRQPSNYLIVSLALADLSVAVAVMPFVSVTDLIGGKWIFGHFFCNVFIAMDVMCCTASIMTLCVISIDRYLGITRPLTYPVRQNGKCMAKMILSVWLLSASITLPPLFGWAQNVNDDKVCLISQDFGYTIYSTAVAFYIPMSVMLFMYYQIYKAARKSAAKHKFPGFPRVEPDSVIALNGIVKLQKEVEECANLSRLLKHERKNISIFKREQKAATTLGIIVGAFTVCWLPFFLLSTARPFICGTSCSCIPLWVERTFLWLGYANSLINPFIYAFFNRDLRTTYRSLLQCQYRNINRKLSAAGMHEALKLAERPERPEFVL

human dopamine D2LR = human dopamine D2LR (Homo sapiens, UniProt P14416); assay: Radioligand binding, [3H]-raclopride displacement
Sequence of human dopamine D2LR (P14416 whole entry): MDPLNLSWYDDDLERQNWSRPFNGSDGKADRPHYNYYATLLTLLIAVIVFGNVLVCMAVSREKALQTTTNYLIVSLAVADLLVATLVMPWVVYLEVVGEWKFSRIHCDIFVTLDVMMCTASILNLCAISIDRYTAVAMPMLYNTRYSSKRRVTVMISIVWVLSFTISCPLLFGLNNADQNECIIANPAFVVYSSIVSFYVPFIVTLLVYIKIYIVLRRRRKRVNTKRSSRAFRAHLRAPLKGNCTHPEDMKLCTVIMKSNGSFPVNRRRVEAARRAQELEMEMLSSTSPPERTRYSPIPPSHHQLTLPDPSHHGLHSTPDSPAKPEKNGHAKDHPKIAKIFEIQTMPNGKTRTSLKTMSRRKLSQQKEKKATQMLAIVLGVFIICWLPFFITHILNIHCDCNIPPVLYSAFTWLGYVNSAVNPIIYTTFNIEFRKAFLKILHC

[2] = Fig. 2, read-out: pKi 5-HT1A (converted)
[3] = Fig. 2, read-out: pKi 5-HT2A (converted)
[4] = Fig. 2, read-out: pKi 5-HT6 (converted)
[5] = Fig. 2, read-out: pKi D2 (converted)
[6] = Fig. 2, read-out: pKi 5-HT7 (converted)

| SMILES | Ki (human serotonin 5-HT1AR) | Ki [1] | Ki (human serotonin 5-HT6R) | Ki (human serotonin 5-HT7bR) | Ki (human dopamine D2LR) | Ki (human serotonin 5-HT1AR; [2]) | Ki [1, 3] | Ki (human serotonin 5-HT6R; [4]) | Ki (human serotonin 5-HT7bR; read-out: Ki 5-HT7) | Ki (human dopamine D2LR; [5]) | Ki (human serotonin 5-HT7bR; [6]) | binding to 5-HT7R in words (human serotonin 5-HT7bR) |
| --- | --- | --- | --- | --- | --- | --- | --- | --- | --- | --- | --- | --- |
| Cn1cc(CCN)c2ccccc21 [1-methyltryptamine, reference compound] | 2.39 µM | 6.59 µM | 3.62 µM | 4.83 µM | 6.54 µM | – | – | – | – | – | – | – |
| CCn1cncc1-c1cn(C)c2ccccc12 [1c] | – | – | – | – | – | > 10 µM | > 10 µM | 7.76 µM | 5.62 µM | > 10 µM | – | – |
| CCn1cncc1-c1cn(C)c2ccc(OC)cc12 [1d] | – | – | – | – | – | 5.01 µM | > 10 µM | 5.5 µM | > 10 µM | > 10 µM | – | – |
| CCCn1cncc1-c1c[nH]c2ccc(OC)cc12 [1f] | – | – | – | – | – | > 10 µM | 4.27 µM | > 10 µM | – | > 10 µM | 0.0646 µM | – |
| CCCCn1cncc1-c1c[nH]c2ccc(OC)cc12 [1g] | – | – | – | – | – | 0.661 µM | 6.17 µM | 5.89 µM | – | > 10 µM | 0.324 µM | – |
| COc1ccc2[nH]cc(-c3cncn3C3CC3)c2c1 [1h] | – | – | – | – | – | 1.29 µM | > 10 µM | 5.25 µM | – | > 10 µM | 3.31 µM | non-active |
| C=CCn1cncc1-c1c[nH]c2ccc(OC)cc12 [1i] | – | – | – | – | – | 0.537 µM | > 10 µM | 5.75 µM | – | > 10 µM | 0.135 µM | – |
| CCn1cncc1-c1c[nH]c2cc(Br)ccc12 [1j] | – | – | – | – | – | > 10 µM | > 10 µM | 6.92 µM | – | > 10 µM | > 10 µM | low affinity |
| CCn1cncc1-c1c[nH]c2cccc(Br)c12 [1k] | – | – | – | – | – | > 10 µM | > 10 µM | 8.71 µM | – | > 10 µM | 2.29 µM | low affinity |
| CCn1cncc1-c1c[nH]c2ccc(F)cc12 [1l] | – | – | – | – | – | – | – | – | 0.302 µM | – | – | – |
| CCn1cncc1-c1c[nH]c2ccc(C#N)cc12 [1p] | – | – | – | – | – | > 10 µM | > 10 µM | > 10 µM | – | > 10 µM | 2.51 µM | – |
| CCn1cncc1-c1c(C)[nH]c2ccc(OC)cc12 [1v] | – | – | – | – | – | > 10 µM | > 10 µM | > 10 µM | – | > 10 µM | > 10 µM | – |
| COc1ccc2[nH]cc(-c3cnc[nH]3)c2c1 [1x] | – | – | – | – | – | 6.76 µM | 7.94 µM | 4.07 µM | – | 6.17 µM | 1.2 µM | – |
| CCn1cncc1-c1c[nH]c2ccc(OCc3ccccc3)cc12 [1y] | – | – | – | – | – | > 10 µM | > 10 µM | – | – | 4.47 µM | 3.72 µM | – |
| CCn1cncc1-c1c[nH]c2ccc(C(N)=O)cc12 [1za, 3-(1-Ethyl-1H-imidazol-5-yl)-1H-indole-5-carboxamide] | – | – | – | – | – | – | – | – | 0.005 µM | – | – | – |
| COc1ccc(-c2cncn2C)cc1 [2b] | – | – | – | – | – | > 10 µM | > 10 µM | 5.37 µM | – | > 10 µM | > 10 µM | completely inactive |
| COc1cccc(-c2cncn2C)c1 [2c] | – | – | – | – | – | > 10 µM | > 10 µM | 8.91 µM | – | > 10 µM | > 10 µM | – |
| COc1ccccc1-c1cncn1C [2d] | – | – | – | – | – | > 10 µM | > 10 µM | > 10 µM | – | > 10 µM | 2.45 µM | – |
| Cn1cncc1-c1ccccc1 [2e] | – | – | – | – | – | > 10 µM | > 10 µM | > 10 µM | – | > 10 µM | > 10 µM | – |
| COc1cc(-c2cncn2C)c(OC)cc1I [2f] | – | – | – | – | – | > 10 µM | > 10 µM | 5.37 µM | – | 6.92 µM | > 10 µM | – |
| CCn1cncc1-c1cc2ccccc2[nH]1 [3b] | – | – | – | – | – | > 10 µM | > 10 µM | > 10 µM | – | > 10 µM | > 10 µM | – |
| CCn1cncc1-c1ccc2[nH]ccc2c1 [3c] | – | – | – | – | – | > 10 µM | > 10 µM | 3.55 µM | – | > 10 µM | 5.25 µM | – |
| CCn1cncc1-c1ccc2cc[nH]c2c1 [3d] | – | – | – | – | – | > 10 µM | > 10 µM | 4.57 µM | – | > 10 µM | 2.63 µM | – |
| COc1ccc2[nH]cc(CCN)c2c1 [5-methoxytryptamine, reference compound] | – | – | – | – | > 10 µM | – | – | – | – | – | – | – |
